The values below come from PubChem BioAssay (NCI).

Some test systems named below: OVCAR-3 ovarian; K-562 leukemia; SF-295 CNS; SW-620 colon; NCI/ADR-RES ovarian; HCT-116 colon; MCF7 breast; BT-549 breast.
What all share (test): growth of human tumour cells (NCI), 48 h

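Values below derive from 48-hour exposures of cells grown in 96-well plates, with endpoints linearly interpolated between the two concentrations bracketing the appropriate inhibition level. Abbreviation: GI50, concentration required for 50% inhibition of growth. TGI is the concentration that stops growth completely.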

With `CC1=C2C(=O)c3ccccc3C(=O)[C@H]2C[C@@H](N2CCCCCC2=O)O1`, the TGI with OVCAR-3 ovarian was 38.2 µM; with K-562 leukemia, 53.4 µM; in the experiment with SF-295 CNS, 35.6 µM; with SW-620 colon, 33.1 µM; in the experiment on NCI/ADR-RES ovarian, 49.8 µM.

On to `CO[P@]1(=O)O[C@@H](c2ccccc2)[C@H](O)[C@@]1(O)c1ccccc1`, for which the TGI in the experiment on OVCAR-3 ovarian, in the experiment with HCT-116 colon, with MCF7 breast, with BT-549 breast, in the experiment with K-562 leukemia and with SF-295 CNS was more than 100 µM throughout. The TGI in the experiment on SW-620 colon and with NCI/ADR-RES ovarian was more than 100 µM throughout.

For `NC(=O)C1=CC2C3C=CC2(O)C(=O)OC3O1` (centres undefined), the TGI was 24.7 µM with OVCAR-3 ovarian; 7.41 µM with HCT-116 colon; 18.5 µM in the experiment with MCF7 breast; 17.3 µM in the experiment with BT-549 breast; more than 100 µM in the experiment on K-562 leukemia; 27.1 µM in the experiment on SF-295 CNS. Besides, the TGI stood at 28.6 µM in the experiment on SW-620 colon and 7.22 µM in the experiment on NCI/ADR-RES ovarian.

As to `COc1ccc(/C=C2\CCC(CNc3ccc(Br)cc3)C2=O)cc1` (centres undefined), the TGI in the experiment on OVCAR-3 ovarian, in the experiment on MCF7 breast, in the experiment on BT-549 breast, in the experiment on K-562 leukemia, in the experiment on SF-295 CNS and in the experiment on SW-620 colon was more than 100 µM throughout. Besides, in the experiment on NCI/ADR-RES ovarian, the TGI is more than 100 µM.

As for `COc1ccc(C2=C(OC(=O)N(C)C)c3cccn3-c3cc(Cl)ccc3S2)cc1`, the TGI in the experiment on MCF7 breast, in the experiment on K-562 leukemia, in the experiment on SF-295 CNS and with SW-620 colon was more than 10 µM each time.

Consider `CC(=O)CC1(C)OC(N)=C(C#N)C1(C#N)C#N` (centres undefined), for which the TGI in the experiment on HCT-116 colon, with MCF7 breast, in the experiment on SF-295 CNS, in the experiment with SW-620 colon and with NCI/ADR-RES ovarian was more than 100 µM each time.

For the compound `CC(C)(C)c1ccc(-c2nnc(-c3cc(C#N)cc(-c4nnc(-c5ccc(C(C)(C)C)cc5)o4)c3)o2)cc1`, the TGI with OVCAR-3 ovarian, in the experiment on HCT-116 colon, in the experiment with BT-549 breast, in the experiment with K-562 leukemia, with SF-295 CNS and in the experiment with SW-620 colon was more than 100 µM in each case. This compound also came in with a TGI with NCI/ADR-RES ovarian of more than 100 µM.

For `COC(=O)c1c(OC)cc2cc3c(c(O)c2c1C)C(=O)C1(O)C(=O)C=C(OC)C(OC(=O)CC(C)N)=C1C3=O` (centres undefined), the TGI in the experiment with OVCAR-3 ovarian was more than 100 µM; in the experiment on HCT-116 colon it was more than 100 µM; in the experiment with MCF7 breast, 67.3 µM; in the experiment with BT-549 breast, more than 100 µM; with SF-295 CNS, more than 100 µM; with SW-620 colon, more than 100 µM. The same compound yielded a TGI with NCI/ADR-RES ovarian of more than 100 µM.

Regarding `CCOC(=O)C1CCCCc2sc(N)c(C#N)c21` (centres undefined), the TGI with HCT-116 colon, in the experiment with MCF7 breast, in the experiment with BT-549 breast, in the experiment with K-562 leukemia and in the experiment with SW-620 colon was more than 100 µM each time.

On to `O=C(c1ccco1)C1CC(c2ccc3ccccc3c2O)=NN1c1ccc([N+](=O)[O-])cc1[N+](=O)[O-]` (centres undefined), for which the TGI in the experiment with OVCAR-3 ovarian, in the experiment with HCT-116 colon, in the experiment with MCF7 breast, in the experiment with BT-549 breast, with SF-295 CNS and in the experiment on SW-620 colon was more than 100 µM each time. Also, the TGI with NCI/ADR-RES ovarian stood at 75.4 µM.

Regarding `CCOC(=O)CCCn1cc(C(=O)OC)nn1`, the TGI in the experiment on HCT-116 colon, with MCF7 breast, with BT-549 breast, with SF-295 CNS, in the experiment with SW-620 colon and in the experiment with NCI/ADR-RES ovarian was more than 100 µM each time.

Consider `O=CNNC(=O)Nc1ccc(Cl)cc1`, for which the TGI in the experiment with HCT-116 colon, with MCF7 breast, with K-562 leukemia, with SF-295 CNS, in the experiment on SW-620 colon and with NCI/ADR-RES ovarian was more than 100 µM in each case.

`COC1=CC(=O)C2=C(C1=O)[C@H]1CC[C@]3(C)[C@@H](OC(C)=O)CC[C@H]3[C@@H]1CC2`: the TGI in the experiment on OVCAR-3 ovarian, in the experiment with HCT-116 colon, in the experiment with BT-549 breast, in the experiment with K-562 leukemia, in the experiment with SF-295 CNS and with SW-620 colon was more than 100 µM throughout. This compound also yielded a TGI in the experiment on NCI/ADR-RES ovarian of more than 100 µM.

`CC12CC(C/C1=N/O)C(C)(C)C2` (centres undefined): the TGI in the experiment on OVCAR-3 ovarian, with HCT-116 colon, in the experiment with MCF7 breast, in the experiment on BT-549 breast, in the experiment with K-562 leukemia and in the experiment on SF-295 CNS was more than 100 µM each time. In the experiment with SW-620 colon, the TGI is more than 100 µM.

Take `Cc1ccc2c(c1)CC1(C2=O)[C@H](c2ccccc2)C2C(=O)c3ccc(C)cc3C2[C@H]1c1ccccc1` (some centres undefined): the TGI in the experiment with OVCAR-3 ovarian, in the experiment with HCT-116 colon, in the experiment with MCF7 breast, in the experiment with BT-549 breast, in the experiment with K-562 leukemia and in the experiment on SF-295 CNS was more than 100 µM throughout. For the same compound, the TGI in the experiment with SW-620 colon was more than 100 µM.

Consider `CCCCCCOc1ccc(C(=N)N(CCCC)CCCC)c2ccccc12`, for which the GI50 is 1.49 µM in the experiment with OVCAR-3 ovarian, 1.6 µM in the experiment with SF-295 CNS, 1.52 µM in the experiment on SW-620 colon and 1.43 µM in the experiment on NCI/ADR-RES ovarian. Also, the TGI with OVCAR-3 ovarian was determined as 2.98 µM; with SF-295 CNS it was 3.17 µM; in the experiment on SW-620 colon it was 3 µM; in the experiment with NCI/ADR-RES ovarian it was 2.79 µM.

Regarding `COC(=O)C(NC(=O)CSc1nnc(COc2ccc(Cl)cc2)n1-c1ccccc1)C(C)C` (centres undefined), the TGI in the experiment with OVCAR-3 ovarian is 31.5 µM; with HCT-116 colon, 31.4 µM; in the experiment with MCF7 breast, more than 100 µM; in the experiment on K-562 leukemia, more than 100 µM; with SF-295 CNS, 42.2 µM; in the experiment on SW-620 colon it was more than 100 µM. This compound also came in with a TGI in the experiment on NCI/ADR-RES ovarian of 82.1 µM.

As for `CNc1ccc(S(=O)Nc2ccccc2)cc1` (centres undefined), the TGI with OVCAR-3 ovarian, in the experiment on HCT-116 colon, in the experiment on MCF7 breast, in the experiment with K-562 leukemia, in the experiment on SF-295 CNS and in the experiment on SW-620 colon was more than 100 µM in each case. The same compound returned a TGI in the experiment with NCI/ADR-RES ovarian of more than 100 µM.

Consider `C=CCOC(=O)CCCCCCCCCCCCCCCOC(=O)C1=C(CCC[C@@H](C)O[Si](C)(C)C(C)(C)C)NC(=O)N2[C@H](CC3(CC/C=C\[C@H](CC)O[Si](C(C)C)(C(C)C)C(C)C)OCCO3)CC[C@H]12`, for which the TGI in the experiment on OVCAR-3 ovarian, in the experiment with HCT-116 colon, in the experiment on MCF7 breast, with BT-549 breast, in the experiment on SF-295 CNS and with NCI/ADR-RES ovarian was more than 100 µM throughout.
